This note sets out measurements from ChEMBL document CHEMBL4350967, “The Trifluoromethyl Group as a Bioisosteric Replacement of the Aliphatic Nitro Group in CB1 Receptor Positive Allosteric Modulators” (J Med Chem, 2019).

Chain of Cannabinoid receptor 1 (P21554 whole entry): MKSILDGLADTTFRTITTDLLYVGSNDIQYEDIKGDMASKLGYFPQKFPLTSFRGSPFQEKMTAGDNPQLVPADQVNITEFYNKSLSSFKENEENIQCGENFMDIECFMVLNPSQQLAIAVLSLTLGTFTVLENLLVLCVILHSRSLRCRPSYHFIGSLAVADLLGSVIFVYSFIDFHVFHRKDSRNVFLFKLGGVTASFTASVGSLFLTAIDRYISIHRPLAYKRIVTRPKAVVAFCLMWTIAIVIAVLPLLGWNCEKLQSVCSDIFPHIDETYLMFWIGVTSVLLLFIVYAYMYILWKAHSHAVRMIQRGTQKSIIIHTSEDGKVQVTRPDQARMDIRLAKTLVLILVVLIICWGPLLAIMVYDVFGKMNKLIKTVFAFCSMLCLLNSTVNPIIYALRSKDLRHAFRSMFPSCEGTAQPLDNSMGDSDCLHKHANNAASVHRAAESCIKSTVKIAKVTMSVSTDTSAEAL

This assay concerns the target Cannabinoid receptor 1 (Homo sapiens, UniProt P21554). As to the kind of experiment: Positive allosteric modulation of human CB1 receptor expressed in CHOK1 cells assessed as increase in CP55940-induced beta-arrestin recruitment at 1 uM preincubated for 30 mins followed by CP55940 addition and measured after 90 to 180 mins by PathHunter assay relative to CP55940. The class given is cell-based. (Arrestin recruitment assays detect the binding of arrestin to an activated receptor.)
For the compound `CC(C)CN(C(=O)C(F)(F)F)c1c(-c2ccccc2)[nH]c2ccccc12`, the Activity was determined as 50%. As for `O=C(N(CC1CC1)c1c(-c2ccccc2)[nH]c2ccccc12)C(F)(F)F`, the figure is 50%. As for `CC(=O)Nc1ccc2c(C(CC(F)(F)F)c3cccs3)c(-c3ccccc3)[nH]c2c1` (racemic), the figure is less than 50%; as for `CC(=O)c1ccc(-c2[nH]c3cc(Cl)ccc3c2C(C[N+](=O)[O-])c2cccs2)cc1` (racemic), less than 50%.

In the case of `CN(C)c1ccc(-c2[nH]c3cc(Cl)ccc3c2C(C[N+](=O)[O-])c2cccs2)cc1` (racemic), the Activity was less than 50%. Turning to `COC(=O)c1ccc(-c2[nH]c3cc(Cl)ccc3c2C(C[N+](=O)[O-])c2cccs2)cc1` (racemic), the Activity is less than 50%. Then `COc1ccc(-c2[nH]c3cc(Cl)ccc3c2C(C[N+](=O)[O-])c2cccs2)cc1` (racemic), with less than 50%; and `COc1cccc(-c2[nH]c3cc(Cl)ccc3c2C(C[N+](=O)[O-])c2cccs2)c1` (racemic), with less than 50%; and `CS(=O)(=O)Nc1ccc2c(C(CC(F)(F)F)c3cccs3)c(-c3ccccc3)[nH]c2c1` (racemic), with less than 50%. Then `CS(=O)(=O)c1ccc(-c2[nH]c3cc(Cl)ccc3c2C(C[N+](=O)[O-])c2cccs2)cc1` (racemic), with less than 50%.

For the compound `Cc1ccc2[nH]c(-c3ccccc3)c(C(CC(F)(F)F)c3ccccc3)c2c1` (racemic), the Activity is less than 50%.

As to `Cc1ccc2[nH]c(-c3ccccc3)c(C(CC(F)(F)F)c3cccs3)c2c1` (racemic), the Activity is less than 50%. As for `Cc1ccc2c(C(C[N+](=O)[O-])c3cccs3)c(-c3ccc(F)cc3)[nH]c2c1` (racemic), the figure is less than 50%. Then `Cc1ccc2c(C(C[N+](=O)[O-])c3cccs3)c(C3CCCCC3)[nH]c2c1` (racemic), with less than 50%; and `N#CC(C#N)C(c1ccccc1)c1c(-c2ccccc2)[nH]c2ccccc12` (racemic), with less than 50%; and `N#CCC(c1ccccc1)c1c(-c2ccccc2)[nH]c2ccccc12` (racemic), with less than 50%. As for `N#Cc1ccc(-c2[nH]c3cc(Cl)ccc3c2C(C[N+](=O)[O-])c2cccs2)cc1` (racemic), the figure is less than 50%. For `N#Cc1cccc(-c2[nH]c3cc(Cl)ccc3c2C(C[N+](=O)[O-])c2cccs2)c1` (racemic), the Activity was less than 50%. In the case of `Nc1ccc2c(C(CC(F)(F)F)c3cccs3)c(-c3ccccc3)[nH]c2c1` (racemic), the Activity was less than 50%. Then `O=C(C(c1ccccc1)c1c(-c2ccccc2)[nH]c2ccccc12)C(F)(F)F` (racemic), with 30 to 50%; and `O=C(O)CC(c1ccccc1)c1c(-c2ccccc2)[nH]c2ccccc12` (racemic), with less than 50%; and `O=C(O)c1ccc(-c2[nH]c3cc(Cl)ccc3c2C(C[N+](=O)[O-])c2cccs2)cc1` (racemic), with less than 50%. Then `O=C(O)c1ccc2c(C(CC(F)(F)F)c3cccs3)c(-c3ccccc3)[nH]c2c1` (racemic), with less than 50%; and `O=[N+]([O-])CC(c1cccs1)c1c(-c2ccc(Cl)cc2)[nH]c2cc(Cl)ccc12` (racemic), with less than 50%; and `O=[N+]([O-])CC(c1cccs1)c1c(-c2ccc(F)cc2)[nH]c2cc(Cl)ccc12` (racemic), with less than 50%. Then `O=[N+]([O-])CC(c1cccs1)c1c(-c2ccccc2)[nH]c2ccc([N+](=O)[O-])cc12` (racemic), with less than 50%; and `OCC(c1ccccc1)c1c(-c2ccccc2)[nH]c2ccccc12` (racemic), with less than 50%; and `OCc1ccc2c(C(CC(F)(F)F)c3cccs3)c(-c3ccccc3)[nH]c2c1` (racemic), with less than 50%. `O=C(O)CC(c1ccccc1)c1c(-c2ccccc2)[nH]c2ccccc12` (single isomer, unassigned; (+)): the Activity is less than 50%. Then `O=C(O)CC(c1ccccc1)c1c(-c2ccccc2)[nH]c2ccccc12` (stereo in doubt; (-)-26), with less than 50%.
